From patent publication US10968193B2, “Antidiabetic bicyclic compounds” (Merck Sharp & Dohme Corp., priority 2014, dated 2021) come the findings set out here.

The experiment deals with T1, human GPR40 (Homo sapiens, UniProt O14842).
T1 construct: expressed in transfected cells; host or cells: HEK cells stably expressing the aequorin reporter
As to the kind of experiment: Inositol Phosphate Turnover (IP1) Assay 3. In kind it is cell-based. Conditions: HEK cells stably expressing human GPR40. How it is done: Human and mouse GPR40 stable cell-lines were generated in CHO cells stably expressing NFAT BLA (Beta-lactamase). A human GPR40 stable cell-line was generated in HEK cells stably expressing the aequorin expressing reporter. The expression plasmids were transfected using lipofectamine (Life Technologies) following manufacturer's instructions. Stable cell-lines were generated following drug selection.
Inositol Phosphate Turnover (IP1) Assay 3:
The assay was performed in 384-well format. HEK cells stably expressing human GPR40 were plated at 7500 cells per well in growth medium (DMEM/10% fetal calf serum). Cell plates were then incubated 16 hours at 37 degrees in a 5% CO2 incubator.
Measurement of Inositol Phosphate Turnover (IP) was performed using the CisBio IP-One kit (Part number 62IPAPEB). After the 16 hour incubation, the growth media was removed by centrifugation using the BlueWasher (AusWasher GUI Ver. v1.0.1.8) Protocol #21—“Light Dry” and 10 ul of stimulation buffer (prepared as described in the kit) was added to each well. In a separate plate, compounds were diluted in DMSO (200-fold over the final concentration in the assay well) and 50 nl was acoustically transferred to the appropriate well in the assay cell plate. The plates were then incubated for 60 minutes at 37 degrees in a 5% CO2 incubator. 10 ul of detection buffer (also prepared as described in the IP-One kit) was added to each well and the plates were incubated at rt for 60 minutes in the dark. The plates were then read in a Perkin Elmer EnVision or equivalent reader able to measure FRET. Fluorescent ratio of emission at 665 and 620 nm was then converted to IP1 concentration by back calculating from an IP1 standard curve prepared at the time of the assay. Data is normalized to % activity using a reference compound and EC50s determined using a standard 4-parameter fit.

T1 sequence (O14842 whole entry): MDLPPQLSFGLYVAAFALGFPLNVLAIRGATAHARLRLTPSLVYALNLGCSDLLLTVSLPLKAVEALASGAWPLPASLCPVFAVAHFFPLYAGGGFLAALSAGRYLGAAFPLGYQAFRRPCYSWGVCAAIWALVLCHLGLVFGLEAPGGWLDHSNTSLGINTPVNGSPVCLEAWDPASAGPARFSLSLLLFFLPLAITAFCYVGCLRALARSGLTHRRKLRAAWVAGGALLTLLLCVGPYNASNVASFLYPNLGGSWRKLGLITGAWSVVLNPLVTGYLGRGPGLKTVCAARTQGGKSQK

For orientation: EC50 means the concentration at which the effect is half-maximal. Low values mean higher potency in that assay, high ones lower potency in that assay. `COc1cc(-c2ccc(C3CCc4ccc([C@H](C5CC5)[C@H](C)C(=O)O)cc4O3)c(CN3CCCCC3(C)C)c2)c(F)cn1` (single isomer, unassigned) [Example 128b] gave an EC50 of 1.2 nM.

`COc1cc(-c2ccc(C3CCc4ccc([C@H](C5CCC5)[C@H](C)C(=O)O)cc4O3)cc2CN2CCCC2(C)C)c(F)cn1` (single isomer, unassigned) [Example 109] gave an EC50 of 0.1 nM.

Regarding `CCN(CC)Cc1nc(C2CCc3ccc([C@H](C4CC4)[C@H](C)C(=O)O)cc3O2)ccc1-c1cc(OC)ncc1F` (single isomer, unassigned) [Example 89], the EC50 was 0.9 nM.

With `COc1cc(-c2ccc(C3CCc4ccc([C@H](C5CC5)[C@H](C)C(=O)O)cc4O3)cc2CN2CCC[C@H]2C)ccn1` (stereo partly shown) [Example 280], the EC50 stood at 16 nM.

The molecule `COc1cc(-c2ccc(C3CCc4ccc([C@H](C5CC5)[C@H](C)C(=O)O)cc4O3)c(CN3CCC[C@H]3C)c2)ccn1` (single isomer, unassigned) [Example 119a] returned an EC50 of 308 nM.

As for `COc1cc(-c2ccc(C3CCc4ccc([C@H](C5CC5)[C@H](C)C(=O)O)cc4O3)c(CN3CCCC3)c2)c(F)cn1` (single isomer, unassigned) [Example 123b], the response was half-maximal at 1.4 nM (EC50).

In turn, `COc1cc(-c2ccc(C3CCc4ccc([C@H](C5CC5)[C@H](C)C(=O)O)cc4O3)cc2CN2[C@H](C)CC[C@H]2C)ccn1` (stereo partly shown) [Example 274] gave an EC50 of 4.3 nM.

In the case of `COc1cc(-c2ccc(C3CCc4ccc([C@H](C5CC5)[C@H](C)C(=O)O)cc4O3)c(CN3CCCCC34CC4)c2)ccn1` (single isomer, unassigned) [Example 223], the EC50 was 0.05 nM.

The molecule `CCOc1cc(-c2ccc(C3CCc4ccc([C@H](C5CC5)[C@H](C)C(=O)O)cc4O3)c(CN(C)C(C)(C)C)c2)c(F)cn1` (mixture of isomers) [Example 132] had an EC50 of 4.8 nM.

`CCOc1cc(-c2ccc(C3CCc4ccc([C@H](C5CC5)[C@H](C)C(=O)O)cc4O3)cc2CN(CC)CC)c(Cl)cn1` (single isomer, unassigned) [Example 214]: the EC50 stood at 12 nM.

The molecule `COc1cc(-c2ccc(C3CCc4ccc([C@H](C5CC5)[C@H](C)C(=O)O)cc4O3)c(CN(C(C)C)C(C)C)c2)c(F)cn1` (single isomer, unassigned) [Example 126a] had an EC50 of 0.05 nM.

In turn, `COCC(c1cc([C@H]2CCc3ccc([C@H](C4CC4)[C@H](C)C(=O)O)cc3O2)ccc1-c1ccnc(OC)c1)N1CCCC1` (mixture of isomers) [Example 179, (2S, 3R)-3-cyclopropyl-3-((2R)-2-(3-(2-methoxy-1-(pyrrolidin-1-yl)ethyl)-4-(2-methoxypyridin-4-yl)phenyl)chroman-7-yl)-2-methylpropanoic acid] registered an EC50 of 17 nM.

Take `COc1cc(-c2ccc(C3CCc4ccc([C@H](C5CC5)[C@H](C)C(=O)O)cc4O3)cc2CN2CCC(C)(C)C2)ccn1` (stereo partly shown) [Example 282]: the EC50 stood at 7.4 nM.

On to `COc1cc(-c2ccc(C3CCc4ccc([C@H](C5CC5)[C@H](C)C(=O)O)cc4O3)c(CN(C(C)C)C(C)C)c2)ccn1` (single isomer, unassigned) [Example 115a], for which a half-maximal effect (EC50) was put at 0.1 nM.

In turn, `CCN(C)Cc1cc(C2CCc3ccc([C@H](C4CC4)[C@H](C)C(=O)O)cc3O2)ccc1-c1cc(OC)ncc1F` (stereo partly shown) [Example 253] came in with an EC50 of 0.9 nM.

For the molecule `COc1cc(-c2ccc(C3CCc4ccc([C@H](C5CC5)[C@H](C)C(=O)O)cc4O3)c(F)c2CN2CCCC2)c(F)cn1` (single isomer, unassigned) [Example 219], a half-maximal effect (EC50) was put at 2 nM.

In turn, `CCN(Cc1cc(C2CCc3ccc([C@H](C4CC4)[C@H](C)C(=O)O)cc3O2)ccc1-c1ccnc(OC)c1)C(C)(C)C` (stereo partly shown) [Example 236] showed an EC50 of 1.3 nM.

In the case of `COc1cc(-c2ccc(C3CCc4ccc([C@H](C5CCC5)[C@H](C)C(=O)O)cc4O3)cc2CN2[C@H](C)CC[C@H]2C)c(F)cn1` (single isomer, unassigned) [Example 96], the EC50 was found to be 0.06 nM.

`COc1cc(-c2ccc([C@@H]3CCc4ccc([C@H](C5CC5)[C@H](C)C(=O)O)cc4O3)cc2CN(C(C)C)C(C)C)ccn1` [Example 284, Sodium (2S,3R)-3-cyclopropyl-3-((S)-2-(3-((diisopropylamino)methyl)-4-(2-methoxypyridin-4-yl)phenyl)chroman-7-yl)-2-methylpropanoate] returned an EC50 of 0.3 nM.

Consider `COc1cc(-c2ccc(C3CCc4ccc([C@H](C5CC5)[C@H](C)C(=O)O)cc4O3)c(CN3CCC[C@H]3C)c2)ccn1` (single isomer, unassigned) [Example 119b], for which the midpoint of the response, the EC50, lay at 4.2 nM.

`COc1cc(-c2ccc(C3CCc4ccc([C@H](C5CC5)[C@H](C)C(=O)O)cc4O3)cc2CN2CCCC2(C)C)ccn1` (stereo partly shown) [Example 281] showed an EC50 of 5.7 nM.

In the case of `COc1cc(-c2ccc(C3CCc4ccc([C@H](C5CC5)[C@H](C)C(=O)O)cc4O3)c(CN3CCCCC3(C)C)c2)c(F)cn1` (single isomer, unassigned) [Example 128a], the EC50 came to 0.07 nM.

Molecule `COc1cc(-c2ccc(C3CCc4ccc([C@H](C5CC5)[C@H](C)C(=O)O)cc4O3)cc2CN2CCC3(CC2)CC3)c(F)cn1` (stereo partly shown) [Example 261] came in with an EC50 of 0.6 nM.

Regarding `COc1cc(-c2ccc(C3CCc4ccc([C@H](C5CC5)[C@H](C)C(=O)O)cc4O3)c(CN3CCCC3(C)C)c2)ccn1` (mixture of isomers) [Example 111, (2S,3R)-3-cyclopropyl-3-(2-(2-((2,2-dimethylpyrrolidin-1-yl)methyl)-4-(2-methoxypyridin-4-yl)phenyl)chroman-7-yl)-2-methylpropanoic acid], a half-maximal effect (EC50) was put at 0.7 nM.

For `CCN(CC)Cc1cc(C2CCc3ccc([C@H](C4CC4)[C@H](C)C(=O)O)cc3O2)ccc1-c1cc(OC)ncc1C#N` (mixture of isomers) [Example 197], the EC50 was 2.9 nM.

In the case of `COc1cc(-c2ccc(C3CCc4ccc([C@H](C5CC5)[C@H](C)C(=O)O)cc4O3)c(CN3CCCCC3(C)C)c2)ccn1` (single isomer, unassigned) [Example 117a], the EC50 was 0.4 nM.

Molecule `CCN(Cc1cc(C2CCc3ccc([C@H](C4CC4)[C@H](C)C(=O)O)cc3O2)c(F)cc1-c1ccnc(OC)c1)C(C)C` (single isomer, unassigned) [Example 186] had a concentration giving a half-maximal response (EC50) of 7.9 nM.

Consider `CCC1CCCCN1Cc1cc(C2CCc3ccc(C(C4CC4)C(C)C(=O)O)cc3O2)ccc1-c1ccnc(OC)c1` (single isomer, unassigned) [Example 258a], for which the EC50 is 1.7 nM.

The molecule `COc1cc(-c2ccc(C3CCc4ccc([C@H](C5CC5)[C@H](C)C(=O)O)cc4O3)cc2C(CN2CCCC2)OC)ccn1` (single isomer, unassigned) [Example 178] gave an EC50 of 136 nM.

On to `CCOc1cc(-c2ccc(C3CCc4ccc([C@H](C5CC5)[C@H](C)C(=O)O)cc4O3)cc2CN2CCCC2)c(Cl)cn1` (single isomer, unassigned) [Example 218], for which the concentration giving a half-maximal response (EC50) came out at 10 nM.

In the case of `COc1cc(-c2ccc([C@@H]3CCc4ccc([C@H](C5CC5)[C@H](C)C(=O)O)cc4O3)cc2CN(C(C)C)C(C)C)c(F)cn1` [Example 225, Sodium (2S,3R)-3-cyclopropyl-3-((S)-2-(3-((diisopropylamino)methyl)-4-(5-fluoro-2-methoxypyridin-4-yl)phenyl)chroman-7-yl)-2-methylpropanoate], the half-maximal effective concentration (EC50) was found to be 0.07 nM.

Consider `CCN(Cc1cc(-c2ccnc(OC)c2)ccc1C1CCc2ccc([C@H](C3CC3)[C@H](C)C(=O)O)cc2O1)C(C)C` (single isomer, unassigned) [Example 113a], for which the midpoint of the response, the EC50, lay at 0.4 nM.

Molecule `COc1cc(-c2ccc(C3CCc4ccc([C@H](C5CC5)[C@H](C)C(=O)O)cc4O3)cc2CN(C)C(C)(C)C)c(C#N)cn1` (single isomer, unassigned) [Example 194] showed an EC50 of 1.1 nM.

Regarding `COc1cc(-c2ccc([C@@H]3CCc4ccc([C@H](C5CC5)[C@H](C)C(=O)O)cc4O3)cc2CN2CC3CC3C2)c(F)cn1` (stereo partly drawn) [Example 250, Sodium (2S,3R)-3-((2S)-2-(3-((3-azabicyclo[3.1.0]hexan-3-yl)methyl)-4-(5-fluoro-2-methoxypyridin-4-yl)phenyl)chroman-7-yl)-3-cyclopropyl-2-methylpropanoate], the EC50 came out at 0.19 nM.

With `CCOc1cc(-c2ccc(C3CCc4ccc([C@H](C5CC5)[C@H](C)C(=O)O)cc4O3)cc2CN(CC)CC)c(F)cn1` (single isomer, unassigned) [Example 171, (2S, 3R)-3-cyclopropyl-3-((R or S)-2-(3-((diethylamino)methyl)-4-(2-ethoxy-5-fluoropyridin-4-yl)phenyl)chroman-7-yl)-2-methylpropanoic acid], the EC50 was determined as 2.5 nM.

In turn, `CCOc1cc(-c2ccc(C3CCc4ccc([C@H](C5CC5)[C@H](C)C(=O)O)cc4O3)cc2CN2CCCC2)c(F)cn1` (single isomer, unassigned) [Example 174] showed an EC50 of 27 nM.

On to `CCN(Cc1cc(C2CCc3ccc([C@H](C4CC4)[C@H](C)C(=O)O)cc3O2)c(F)cc1-c1ccnc(OC)c1)C(C)C` (single isomer, unassigned) [Example 185], for which the EC50 is 4.4 nM.
